Test results: patent publication US20190010533A1, “METHODS FOR SCREENING AND SELECTING TARGET AGENTS FROM MOLECULAR DATABASES” (The Methodist Hospital System, priority 2017, published 2019)
Where a name gives a salt, the structure may show the parent alone. Read-outs that look alike come from different tables or passages of the source.

Columns and labels:
[1] = system: canonical pathways; experiment: RNA-seq canonical pathway analysis of 3D AD #A5 cultures treated with anti-Aβ drugs; assay type: cell-based, human; settings: AD #A5 DMSO vs treated
Text: FIG. 7. […] Pearson correlations of global gene expression profile among 2D undifferentiated control ReN cells, 3D control (G2#B2on), AD #A5 (#A5, moderate Aβ42/40 ratio ˜0.2), AD #D4 (#D4, high Aβ42/40 ratio, ˜1.4), and AD #H10 (#H10, extra high Aβ42/40 ratio, ˜1.7). Units are log CPM. b. Volcano plots show −log10(FDR) vs log FC distribution for G2#B2 (control) vs AD #A5 (AD), AD #A5 DMSO vs AD #A5 BSI (BACE inhibitor, Ly2886721), and AD #A5 DMSO vs AD #A5 GSM (gamma secretase modulator, SGSM15606) transcriptomic signatures. […] Canonical pathway analysis between G2#B2 and AD #A5 (Ingenuity pathway analysis, Qiagen). d. Analysis of common canonical pathways. The pathway analysis among G2#B2 vs AD #A5, AD #A5 DMSO vs AD #A5 BSI, and AD #A5 DMSO vs AD #A5 GSM. Activation z-scores indicate that majority of decreased pathways in AD #A5 are restored by BSI and/or GSM treatments. e. […]
To examine the multiple single-clonal AD models, unbiased whole genome RNA-seq analyses were performed to compare gene expression profiles among the clonal AD models with different Aβ42/40 ratios, as compared to control 3D cultures and undifferentiated 2D control cells (FIG. 7a-d). […] Differential gene expression profile of 3D AD cultures were analyzed after treating anti-Aβ drugs (BACE1 inhibitor, Ly2886721; Gamma-secretase modulator (GSM), GSM15606) (FIG. 7b). […]

[2] = system: pTau; experiment: cell-based validation in reformatted high content version of AD-in-a-dish model; settings: 26 predicted compounds tested
Text: FIG. 2. Pilot SMART screen used 20 primary hits to identify 5 new compound hits that inhibit pTau (phospho-Tau or phosphorylated Tau).
Twenty-two of the 38 aforementioned screening hits had LINCS data covering the perturbation profiles for at least 4 cell lines. From these twenty-two hits, 2 were eliminated because no known drug candidates ranked high enough based on transcriptomic similarities to these two primary hits; and 3 others were removed upon inspection of the compound properties of the predictions they made, i.e., the predicted drugs may be toxic or unfit for systematic use. Thus, the 17 primary hits were used to initiate a pilot run using the SMART framework. The cMAP algorithm^7 was used to rank all compounds in the LINCSCloud, based on the similarity of transcriptomic profiles to each of the 17 primary hits. If any compound was determined by cMAP algorithm to have a similarity score larger than 90 to at least one of the primary hits, it was identified as a hit candidate. After filtering based on pharmacology features, 85 candidates predicted by 17 primary hits remained; 26 of these 85 compounds were purchased for validation after analysis for pharmacology and medical practice features.

[3] = system: pTau; experiment: primary high-content screening (HCS) for inhibition of pTau accumulation in neuron cells in 3D culture; assay type: cell-based
Text: This workflow to identify the mechanisms underlying those screening hits can be used to effectively discover more compounds that can generate similar phenotype. As a proof of concept, the transcriptomic profiles hosted by the Broad Institute'[…] warehouse^28-30 through the NIH LINCS program were used in the initial study.

[4] = system: 3D AD models; experiment: cellular viability and neurite networks in the immunofluorescence study; assay type: cell-based, human; settings: 5 μM for 3 weeks
Text: (§1) In addition to MSD Mesoscale ELISA shown in FIG. 8, quantitative Western blot and immunofluorescence analysis were used to validate candidate drugs. […] Ebselen and leflunomide are compounds screened from original HCS screening of […] biologically active/FDA-approved drug library. […] Moreover, quantitative immunofluorescence staining was used to analyze p-tau changes after treating these compounds.

[5] = system: insoluble p-tau species (pSer396/Ser404, pThr181); experiment: Western blot analysis in 3D AD models with high Aβ42/40 ratios; assay type: cell-based, human; settings: various concentrations
Text: (§2) FIG. 9. Validation of primary hit candidates. Primary hit candidates were confirmed using Western blot analysis (a) and quantitative immunofluorescence staining in 3D AD models with high Aβ42/40 ratios (#HReN and #A4H1) (b). PHF1 pSer396/Ser404 tau antibody was used to detect changes in phospho tau in 3D AD #HReN cells treated with DMSO vehicle, ebselen, or leflunomide.
as §1

[6] = system: p-tau (pSer396/Ser404); experiment: quantitative immunofluorescence staining in 3D AD models; assay type: cell-based, human; settings: 5 μM for 3 weeks
Text: as §2, §1

[7] = system: genes and pathways; experiment: whole genome RNAseq analysis after compound treatment versus control; assay type: cell-based
Text: FIG. 10A-10B. […] PPI information was extracted from STRING database version 10.5 with the cutoff for confidence score at 0.4.
Given ebselen and leflunomide in FIG. 9, an unbiased whole genome RNAseq analysis was used to obtain transcriptomic profiles after the treatment of each compound and compare them separately to control conditions. For both treatments, a subset of genes and pathways show significant change (|log FC|>1.5) in the same direction over control condition. […] These 22 genes have 102 PPI pairs among them, and there are 7 genes directly connected to APP (coding Aβ) or MAPT (coding Tau).
It's worth noting that the enrichment of immune and inflammatory related pathway changes is consistent with the characteristics of the 3D cell model, as this system contains astrocytes, which is one of the brain innate immune cells. […] Also, neuroinflammatory pathways are highly unregulated in high Abeta42/40 lines (D4 and H10) as compared to A5 (similar to GA2) (data not shown).

[8] = system: primary neurons; experiment: time-lapse synaptogenesis assay (FM1-43 staining, KCl de-staining); assay type: cell-based
Method: FIG. 6. Time-lapse synaptogenesis assay identifies pre-synaptic hyperactivity caused by thiorphan's treatments.
A high content screening (HCS) is carried out on existing 3,000 known drugs and compounds to systematically characterize the effects of known drugs or bioactive compounds on the Parkinson's Disease (PD) induced pluripotent stem (iPS) cell model, with the aim to identify effective hits that can be validated in PD mouse models. […] Cells were stained with FM1-43 (FIG. 6A) and de-stained by KCl stimulation (FIG. 6B). Time-lapse imaging was carried out from the dye uptake until the synapses were completely de-stained. […] A similar assay is applied in iPS cells as well as neuron cell models for PD. In addition to using the prevalence of synaptogenesis as the main readout for the high content screening (HCS), the heterogeneous nature of stem cell differentiation is addressed by identifying and quantifying the prevalence of novel phenotypes other than stem cell and synaptogenesis based on morphological features. Such consideration of cell population heterogeneity brings deeper insight in the HCS and can help identify potential compounds that are causing specific type of differentiations benefiting cure of PD.

NC1=N[C@@]2(c3cc(NC(=O)c4ccc(F)cn4)ccc3F)COC[C@H]2CS1 [Ly2886721]
pathways decreased in AD #A5 after treatment (activation z-scores) [1]: restored

C1CCC(C(CC2CCCCN2)C2CCCCC2)CC1 (stereo not shown) [Perhexiline, perhexiline maleate]
inhibition of pTau in validation [2]: successful predictions

Nc1ccc(-c2nc3ccc(-c4nc5ccc(N)cc5[nH]4)cc3[nH]2)cc1 [Ro90-7501]
inhibition of pTau accumulation (primary screen hit status) [3]: primary hits

COc1nc(-c2cc(C)c(NC(C)c3ccc(F)cc3)nn2)ccc1-n1cnc(C)c1 (stereo not shown) [SGSM15606]
pathways decreased in AD #A5 after treatment (activation z-scores) [1]: restored

C/C(=C\c1ccc(C(=O)O)cc1)c1ccc2c(c1)C(C)(C)CCC2(C)C [TTNPB]
inhibition of pTau accumulation (primary screen hit status) [3]: primary hit

Oc1c(Cl)cc(Cl)c2cccnc12 [chloroxine]
inhibition of pTau in validation [2]: validated hits

Cc1oncc1C(=O)Nc1ccc(C(F)(F)F)cc1 [leflunomide]
cellular viability and neurite networks [4]: without affecting | insoluble p-tau species (pSer396/Ser404, pThr181) [5]: significantly decreased | p-tau (pSer396/Ser404) accumulation [6]: robustly decreased | pathways changed after treatment ([7]; 5 of 6 pathways connected to 12 down-regulated genes): significantly down-regulated | genes with significant change versus control ([7]; |log FC|>1.5, shared by both treatments): 15 down-regulated and 7 up-regulated genes

CC[N+](CC)(CC)CCOc1ccc(/C=C/c2ccccc2)cc1 [mg624]
inhibition of pTau accumulation (primary screen hit status) [3]: top-3 hits

N=C(N)c1ccc(OCCCCCOc2ccc(C(=N)N)cc2)cc1 [pentamidine]
inhibition of pTau accumulation (primary screen hit status) [3]: top-3 hits

O=C(O)CNC(=O)C(CS)Cc1ccccc1 (stereo not shown) [thiorphan]
pre-synaptic activity (FM dye uptake, automatic image quantification) [8]: causes pre-synaptic hyperactivity

ivermectin
inhibition of pTau accumulation (primary screen hit status) [3]: top-3 hits | inhibition of pTau accumulation (primary screen hit status) ([3]; listed as Ivermectin): most significant phenotype
